The text below walks through data of ChEMBL document CHEMBL1201862, “PubChem BioAssay data set” (2004).

SMILES strings stand for the structures. The source made the active and inactive calls. Cut-off read from the data, not from the text of the source, for most assays here: actives have a measured EC50 and inactives only a lower limit. Bounds are passed on as bounds.

Assay [1] is described as follows: cells. The class given is functional, cell-based.
Assay [2] addresses T1, Serine/threonine-protein phosphatase (Candida dubliniensis (strain CD36 / CBS 7987 / NCPF 3949 / NRRLY-17841) (Yeast), UniProt B9W6M3).
T1 sequence (B9W6M3 whole entry): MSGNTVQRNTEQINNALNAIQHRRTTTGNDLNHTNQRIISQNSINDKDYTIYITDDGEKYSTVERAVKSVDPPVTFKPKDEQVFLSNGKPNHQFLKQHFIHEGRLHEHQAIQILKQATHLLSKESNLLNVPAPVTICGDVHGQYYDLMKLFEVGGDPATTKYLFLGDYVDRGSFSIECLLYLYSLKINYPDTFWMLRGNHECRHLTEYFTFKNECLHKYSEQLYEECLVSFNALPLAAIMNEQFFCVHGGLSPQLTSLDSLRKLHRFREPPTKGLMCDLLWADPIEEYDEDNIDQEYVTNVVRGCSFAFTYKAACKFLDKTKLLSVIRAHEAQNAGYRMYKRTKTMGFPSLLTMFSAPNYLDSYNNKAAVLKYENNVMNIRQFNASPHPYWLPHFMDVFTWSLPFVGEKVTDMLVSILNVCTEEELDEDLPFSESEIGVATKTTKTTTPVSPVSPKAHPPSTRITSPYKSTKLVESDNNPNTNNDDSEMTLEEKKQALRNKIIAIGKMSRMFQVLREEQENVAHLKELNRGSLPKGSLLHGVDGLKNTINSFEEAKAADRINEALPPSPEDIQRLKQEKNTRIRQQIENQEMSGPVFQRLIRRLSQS
The assay can be described thus: calcineurin pathway inhibitors in yeast reporter, dose response, S. cerevisiae, CDRE-lacZ, luminescence, secondary (AID 2388).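 Note: yeast reporter cells carrying a calcineurin-responsive lacZ construct stimulated with calcium chloride; luminescent beta-galactosidase reporter signal in whole cells rather than isolated phosphatase activity; potency for inhibition where a drop in reporter signal means calcineurin blockade.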 The class given is functional, cell-based.

In assay [3] the target is T2, Protein RecA (Mycobacterium tuberculosis, UniProt P9WHJ3).
T2 sequence (P9WHJ3 whole entry): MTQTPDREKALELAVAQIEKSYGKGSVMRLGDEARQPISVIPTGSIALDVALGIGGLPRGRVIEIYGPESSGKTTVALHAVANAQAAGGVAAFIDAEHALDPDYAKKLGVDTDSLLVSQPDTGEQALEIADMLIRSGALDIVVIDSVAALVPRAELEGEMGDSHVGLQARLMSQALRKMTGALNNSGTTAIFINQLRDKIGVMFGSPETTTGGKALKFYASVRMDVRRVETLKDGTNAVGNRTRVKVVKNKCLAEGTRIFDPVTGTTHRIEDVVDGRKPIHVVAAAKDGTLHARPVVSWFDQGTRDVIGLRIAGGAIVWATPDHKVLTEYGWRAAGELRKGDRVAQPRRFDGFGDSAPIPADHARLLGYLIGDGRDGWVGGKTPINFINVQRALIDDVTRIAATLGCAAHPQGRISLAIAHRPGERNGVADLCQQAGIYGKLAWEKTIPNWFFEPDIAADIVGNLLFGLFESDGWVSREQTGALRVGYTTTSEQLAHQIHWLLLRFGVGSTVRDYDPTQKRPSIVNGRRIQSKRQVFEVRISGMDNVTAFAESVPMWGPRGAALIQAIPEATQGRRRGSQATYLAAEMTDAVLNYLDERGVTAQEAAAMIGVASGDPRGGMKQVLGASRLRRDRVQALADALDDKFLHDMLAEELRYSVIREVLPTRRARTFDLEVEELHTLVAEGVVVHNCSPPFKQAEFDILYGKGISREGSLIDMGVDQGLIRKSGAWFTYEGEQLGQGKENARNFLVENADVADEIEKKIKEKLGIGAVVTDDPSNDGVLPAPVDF
The assay can be described thus: Fluorescence Cell-Free Homogeneous Dose Retest to Identify Inhibitors of RecA-Intein Splicing Activity. [Related pubchem assays (depositor defined):AID2097, AID2223, AID489010, AID492950]. The class given is functional.

Assay [4] has as its system Streptococcus sp. 'group A'. The assay can be described thus: growth inhibition of control SK(-) GAS strain, dose response, counter-screen for streptokinase expression inhibitor project, luminescence, kanamycin, BacTiterGlo, confirmation (AID 1900). The class given is functional, organism-based.
Assay [5] deals with T3, Replicative DNA helicase DnaB (Mycobacterium tuberculosis, UniProt P9WMR3).
T3 sequence (P9WMR3 whole entry): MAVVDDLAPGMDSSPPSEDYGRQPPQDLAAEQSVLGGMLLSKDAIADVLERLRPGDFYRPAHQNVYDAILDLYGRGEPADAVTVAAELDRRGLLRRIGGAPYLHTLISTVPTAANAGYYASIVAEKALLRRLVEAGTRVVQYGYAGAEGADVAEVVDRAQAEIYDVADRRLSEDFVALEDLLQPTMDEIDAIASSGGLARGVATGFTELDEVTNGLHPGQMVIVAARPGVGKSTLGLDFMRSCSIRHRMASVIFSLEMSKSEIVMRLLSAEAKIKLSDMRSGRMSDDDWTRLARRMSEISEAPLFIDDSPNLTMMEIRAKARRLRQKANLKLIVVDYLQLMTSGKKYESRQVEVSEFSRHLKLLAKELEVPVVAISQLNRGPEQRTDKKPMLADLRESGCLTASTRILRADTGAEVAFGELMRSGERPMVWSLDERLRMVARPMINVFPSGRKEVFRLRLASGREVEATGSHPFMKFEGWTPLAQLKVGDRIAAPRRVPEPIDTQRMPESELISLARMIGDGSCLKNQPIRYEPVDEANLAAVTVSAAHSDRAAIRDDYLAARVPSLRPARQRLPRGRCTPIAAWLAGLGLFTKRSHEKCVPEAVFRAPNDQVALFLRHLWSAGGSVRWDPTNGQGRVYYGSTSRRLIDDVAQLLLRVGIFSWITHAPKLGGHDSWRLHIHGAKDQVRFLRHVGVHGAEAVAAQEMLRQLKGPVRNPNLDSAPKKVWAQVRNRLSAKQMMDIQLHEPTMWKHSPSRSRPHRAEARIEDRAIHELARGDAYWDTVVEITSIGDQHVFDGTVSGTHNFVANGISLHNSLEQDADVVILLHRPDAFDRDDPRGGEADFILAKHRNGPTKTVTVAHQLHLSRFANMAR
The assay can be described thus: DnaB intein splicing inhibitors, dose response, biochemical, cell-free fluorescence (AID 449749). The class given is functional.

Assay [6] addresses T4, Streptokinase A (Streptococcus pyogenes serotype M1, UniProt P10520).
T4 sequence (P10520 whole entry): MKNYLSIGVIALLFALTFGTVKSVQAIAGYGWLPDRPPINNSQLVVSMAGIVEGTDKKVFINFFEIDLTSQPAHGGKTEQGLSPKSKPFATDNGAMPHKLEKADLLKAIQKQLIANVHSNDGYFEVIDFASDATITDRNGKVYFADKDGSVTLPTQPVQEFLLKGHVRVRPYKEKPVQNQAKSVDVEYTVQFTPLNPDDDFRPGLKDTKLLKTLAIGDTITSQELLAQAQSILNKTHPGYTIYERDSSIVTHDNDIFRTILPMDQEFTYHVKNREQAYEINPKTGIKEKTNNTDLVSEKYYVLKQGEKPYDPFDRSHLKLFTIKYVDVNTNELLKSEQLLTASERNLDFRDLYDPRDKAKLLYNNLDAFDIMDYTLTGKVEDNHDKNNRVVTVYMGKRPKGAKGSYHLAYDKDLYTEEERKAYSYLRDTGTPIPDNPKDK
The assay can be described thus: S. pyogenes streptokinase expression inhibitors, potency, dose response, plasminogen activation absorbance, OD405 (AID 1914).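 Note: secreted streptokinase activity via plasminogen activation per viability signal from cell pellet.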 The class given is functional, Streptococcus pyogenes M1 GAS.

A word on the EC50: it is the concentration giving half of the maximal effect. As for `Oc1c(C(c2ccccc2Cl)N2CCCC2)ccc2cccnc12` (stereo unspecified), the EC50 in assay [1] was 27.4 µM (active); in assay [2], > 180 µM (inactive).

A word on the AC50: it is the concentration giving half of the maximal activity seen. On to `CCc1ccc(S(=O)(=O)/N=C2\C=C(Nc3ccc(C(=O)O)cc3)C(=O)c3ccccc32)cc1`, for which the 50% effective concentration (EC50) in assay [3] was 0.124 µM (active); in assay [4], 0.451 µM (active); in assay [6] it was > 150 µM (not active). In addition, the AC50 in assay [5] was > 380 µM (inconclusive).

Consider `[O-][N+]1=c2ccc(Nc3ccccc3)cc2=NC12CCCCC2`, for which the results for the EC50 in assay [3] and in assay [2] were 4.37 µM (active) and > 180 µM (inactive), respectively. Besides, the AC50 in assay [5] was > 380 µM (inactive).

With `COc1cccc(/C=N/Nc2ccc([N+](=O)[O-])cn2)c1O`, the half-maximal effective concentration (EC50) in assay [4] was 0.912 µM (active); in assay [1], > 350 µM (not active).
